Patent publication US20260027380A1, “TECHNIQUES FOR MAGNETIC NANOCLUSTER-BASED COMBINATION THERAPY” (William Marsh Rice University, priority 2022, published 2026)

Key:
Type in all cases: cell-based, murine
MC-38 cells [1] = test: Detection of intracellular free radicals (H2DCFDA); conditions: without AMF
Experimental: Additionally, intracellular free radical generation by IONC-AAPH was measured using 2′,7′-dichlorodihydrofluorescein diacetate (H2DCFDA) as an intracellular free radical probe. H2DCFDA is a non-fluorescent cell-permeant compound. Upon oxidation by free radicals, H2DCFDA is converted to a highly fluorescent 2′,7′-dichlorofluorescein (DCF). MC-38 cells (murine colon adenocarcinoma cell line) were pre-incubated with IONC or IONC-AAPH (at 300 μg Fe/mL concentration) for 1 h to allow internalization into cells. The intracellular IONC and IONC-AAPH were 0.79±0.16 and 0.87±0.12 pg Fe/cell, respectively, as quantified by a ferrozine-based colorimetric assay. After internalization, the cells were exposed to AMF for 1 h. The intracellular free radicals in the MC-38 cells were then examined with H2DCFDA through fluorescence microscopy and flow cytometry. FIG. 4 illustrates a flow cytometry analysis of intracellular free radicals in MC-38 cells detected via fluorescence from DCF. Further, FIG. 5 is a graph illustrating the quantification of intracellular free radicals (e.g., quantification of the mean fluorescence of DCF). The data in FIG. 5 represents the mean DCF fluorescence of each group +the standard error of mean (s.e.m.).
Detection of intracellular free radicals: The intracellular generation of free radicals was determined using H2DCFDA probe. […]

MC-38 cells [2] = test: Mitochondrial membrane potential (JC-1 staining); conditions: without AMF
Text: JC-1 dye was used to examine the effect of heat and free radical generation by IONC-AAPH on mitochondria. JC-1 dye is an indicator of mitochondrial membrane potential (MMP). In healthy cells with high MMP, JC-1 accumulates in the mitochondria and forms J-aggregates, which emit red fluorescence. In contrast, apoptotic cells with low MMP, JC-1 diffuses in the cytoplasm and remains as J-monomers, which give green fluorescence. A decrease in J-aggregates to J-monomers ratio indicates MMP loss (i.e., mitochondrial depolarizations). […] The J-aggregates to J-monomers ratios quantified using flow cytometry confirmed the significant MMP loss due to heat and free radicals, as illustrated in FIGS. 9 (depicting results of flow cytometry analysis of mitochondrial membrane potential of MC-38 cells 4 h after treatment by JC-1 staining) and 10 (depicting quantification of the J-aggregate to J-monomer ratio using the mean fluorescence detected by flow cytometry in FIG. 9).
Determination of mitochondrial health: The mitochondrial membrane potential of MC-38 cells was determined with JC-1 staining assay. […] After staining, the cells were imaged with a confocal microscope (Nikon A1-Rsi confocal) or analyzed on a flow cytometer (BD Accuri C6 Plus). The ratio of J-aggregates to J-monomers was calculated using the red and green fluorescence intensity measured by flow cytometry.

MC-38 cells [3] = test: Evaluation of F-actin morphology (phalloidin staining); conditions: without heating (no AMF)
Text: To examine the effect of heating and free radicals on the actin cytoskeleton, actin filaments (F-actin) were stained with fluorescent phalloidin. […] In cells subjected to heating and free radicals but still showing phalloidin staining, the actin filaments were further retracted and more condensed compared with cells under heating only. FIG. 8 illustrates a quantification of MC-38 cells with F-actin structure in the above-described morphological analysis. […] In the cells with phalloidin staining, the actin filaments were further retracted and more condensed compared with the hyperthermia only group.
Evaluation of F-actin morphology: The F-actin morphology of MC-38 cells was evaluated by phalloidin staining. MC-38 cells were seeded in 4-compartment cell culture dishes and cultured overnight. The cells were then treated with 300 μg Fe/mL of IONC-AAPH or IONC at 37° C. or under AMF for 90 min. Four hours after the treatment, the cells were fixed, permeabilized, and blocked as described above. Then the cells were incubated with Alexa Fluor 568-labeled phalloidin for 30 min at room temperature, followed by staining with Hoechst 33342 for 10 min at room temperature. Images were collected using a Nikon Al-Rsi confocal microscope.

MC-38 cells [4] = test: Quantification of intracellular GSH (GSH-Glo); conditions: without AMF, 37° C. for 4 h
Experimental: Glutathione (GSH) is an antioxidant that plays an important role in the scavenging of intracellular free radicals and protecting the cells against oxidative damage. GSH depletion will disrupt the redox homeostasis and lead to oxidative stress and eventual cell death. MC-38 cells were treated with 300 μg Fe/mL of IONC or IONC-AAPH and subjected to AMF for 2 hours. The intracellular GSH was quantified after 2 hours of incubation at 37° C. Intracellular GSH was also measured for cells treated with AAPH, IONC, or IONC-AAPH, respectively, without AMF and incubated at 37° C. for 4 h. The intracellular GSH was quantified using a luminescence-based GSH-Glo glutathione assay. FIG. 11 illustrates a GSH depletion measurement of the MC-38 cells 2 hours after treatment. […] In contrast, treating cells with IONC-AAPH under AMF (i.e., with both heating and free radicals) decreased the GSH/GSSG ratio to 55% of that in the control cells.
Quantification of intracellular GSH: MC-38 cells were seeded in 4-compartment cell culture dishes at a density of 1×10^5 cells per compartment and cultured overnight. Then the cells were treated with 300 μg Fe/mL of IONC-AAPH or IONC at 37° C. or under AMF for 2 h. Two hours after the treatment, the culture medium was removed and the intracellular GSH was quantified using a luminescence-based GSH-Glo Glutathione Assay according to the manufacturer's instructions.

With `CC(C)(N=NC(C)(C)C(=N)N)C(=N)N.Cl.Cl` [AAPH, 2,2′-azobis(2-amidinopropane) dihydrochloride] the “intracellular free radicals (DCF fluorescence)” value (MC-38 cells [1]) was “negligible fluorescence”, the “JC-1 state (mitochondrial membrane potential)” value (MC-38 cells [2]) was “J-aggregates were formed” and the F-actin morphology (MC-38 cells [3]) was “well organized and elongated”. The “change in GSH to GSSG ratio” value (MC-38 cells [4]) was “did not affect the GSH to GSSG ratio”.
